Data as given in patent publication US8772480B2, “Inhibitors of PI3 kinase and/or mTOR” (priority 2009, dated 2014).
Like-named read-outs stand apart in the source and are kept apart here.

Columns and labels:
[1] = target: human mutant B-raf (HuBraf V600E) (Homo sapiens (Human), UniProt P15056, V600E); details: at 10 μM compound concentration; POC = 100 − percent inhibition
PI3Kα [2] = target: T1, PI3Kα (Homo sapiens (Human), UniProt P42336); details: read-out: PI3Kα AlphaScreen ® Ki
[3] = test system: phosphorylation of Akt at Serine 473 in U87 MG cells; assay: cells; details: Homo sapiens, U-87 MG, 2 h, read-out: U87Cell IC50, pAkt (Ser 473), U87 MG cells, two hours with compound
PI3Kα [4] = target: T1, PI3Kα; assay: biochemical; details: PI3Kα AlphaScreen ® Ki

Sequence of human mutant B-raf (HuBraf V600E) (P15056 whole entry V600E): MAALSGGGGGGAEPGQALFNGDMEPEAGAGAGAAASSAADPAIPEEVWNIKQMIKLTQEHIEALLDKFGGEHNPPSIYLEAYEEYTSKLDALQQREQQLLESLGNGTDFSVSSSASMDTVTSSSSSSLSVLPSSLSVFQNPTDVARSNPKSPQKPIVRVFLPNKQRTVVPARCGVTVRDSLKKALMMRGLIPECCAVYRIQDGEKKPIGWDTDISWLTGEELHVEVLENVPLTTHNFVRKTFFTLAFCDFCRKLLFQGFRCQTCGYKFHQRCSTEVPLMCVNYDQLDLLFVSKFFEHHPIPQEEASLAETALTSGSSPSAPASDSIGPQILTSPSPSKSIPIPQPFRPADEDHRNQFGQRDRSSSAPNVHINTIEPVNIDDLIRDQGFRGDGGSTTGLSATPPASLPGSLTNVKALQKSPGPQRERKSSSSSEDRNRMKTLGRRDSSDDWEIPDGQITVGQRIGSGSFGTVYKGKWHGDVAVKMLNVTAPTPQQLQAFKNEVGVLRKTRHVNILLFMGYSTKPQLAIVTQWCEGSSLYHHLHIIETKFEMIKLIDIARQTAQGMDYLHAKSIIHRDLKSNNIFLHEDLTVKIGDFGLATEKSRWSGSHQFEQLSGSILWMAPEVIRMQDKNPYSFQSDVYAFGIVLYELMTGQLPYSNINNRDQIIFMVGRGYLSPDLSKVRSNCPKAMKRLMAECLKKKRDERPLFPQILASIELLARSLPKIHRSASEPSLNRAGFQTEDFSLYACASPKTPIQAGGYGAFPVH
T1 sequence (P42336 whole entry): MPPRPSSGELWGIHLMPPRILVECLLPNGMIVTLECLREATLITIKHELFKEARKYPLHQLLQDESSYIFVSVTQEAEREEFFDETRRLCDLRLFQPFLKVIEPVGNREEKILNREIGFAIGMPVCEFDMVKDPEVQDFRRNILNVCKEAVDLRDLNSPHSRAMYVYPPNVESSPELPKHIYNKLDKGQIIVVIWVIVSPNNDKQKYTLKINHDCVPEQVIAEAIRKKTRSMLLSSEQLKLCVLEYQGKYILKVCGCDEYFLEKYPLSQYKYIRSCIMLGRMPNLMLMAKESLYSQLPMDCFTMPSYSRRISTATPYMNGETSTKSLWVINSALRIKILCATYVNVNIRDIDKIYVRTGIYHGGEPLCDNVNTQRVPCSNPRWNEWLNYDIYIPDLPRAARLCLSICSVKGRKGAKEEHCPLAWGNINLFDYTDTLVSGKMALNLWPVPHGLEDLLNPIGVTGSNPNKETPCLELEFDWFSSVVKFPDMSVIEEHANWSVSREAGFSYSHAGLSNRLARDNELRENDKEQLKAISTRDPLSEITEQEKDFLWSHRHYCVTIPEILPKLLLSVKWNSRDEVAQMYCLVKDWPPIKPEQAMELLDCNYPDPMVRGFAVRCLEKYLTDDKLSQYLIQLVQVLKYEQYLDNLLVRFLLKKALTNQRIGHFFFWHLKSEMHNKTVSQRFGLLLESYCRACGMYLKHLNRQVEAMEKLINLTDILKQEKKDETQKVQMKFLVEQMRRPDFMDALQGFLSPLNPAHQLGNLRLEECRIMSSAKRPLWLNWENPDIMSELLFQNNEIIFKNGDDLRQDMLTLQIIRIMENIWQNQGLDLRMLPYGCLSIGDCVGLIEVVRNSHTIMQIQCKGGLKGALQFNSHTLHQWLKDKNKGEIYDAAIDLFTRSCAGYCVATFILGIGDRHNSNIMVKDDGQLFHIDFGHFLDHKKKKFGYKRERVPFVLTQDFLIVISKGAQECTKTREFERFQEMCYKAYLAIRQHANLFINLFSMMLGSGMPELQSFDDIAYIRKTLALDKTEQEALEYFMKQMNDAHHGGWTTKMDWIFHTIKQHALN
T1 sequence (P27986 whole entry partner): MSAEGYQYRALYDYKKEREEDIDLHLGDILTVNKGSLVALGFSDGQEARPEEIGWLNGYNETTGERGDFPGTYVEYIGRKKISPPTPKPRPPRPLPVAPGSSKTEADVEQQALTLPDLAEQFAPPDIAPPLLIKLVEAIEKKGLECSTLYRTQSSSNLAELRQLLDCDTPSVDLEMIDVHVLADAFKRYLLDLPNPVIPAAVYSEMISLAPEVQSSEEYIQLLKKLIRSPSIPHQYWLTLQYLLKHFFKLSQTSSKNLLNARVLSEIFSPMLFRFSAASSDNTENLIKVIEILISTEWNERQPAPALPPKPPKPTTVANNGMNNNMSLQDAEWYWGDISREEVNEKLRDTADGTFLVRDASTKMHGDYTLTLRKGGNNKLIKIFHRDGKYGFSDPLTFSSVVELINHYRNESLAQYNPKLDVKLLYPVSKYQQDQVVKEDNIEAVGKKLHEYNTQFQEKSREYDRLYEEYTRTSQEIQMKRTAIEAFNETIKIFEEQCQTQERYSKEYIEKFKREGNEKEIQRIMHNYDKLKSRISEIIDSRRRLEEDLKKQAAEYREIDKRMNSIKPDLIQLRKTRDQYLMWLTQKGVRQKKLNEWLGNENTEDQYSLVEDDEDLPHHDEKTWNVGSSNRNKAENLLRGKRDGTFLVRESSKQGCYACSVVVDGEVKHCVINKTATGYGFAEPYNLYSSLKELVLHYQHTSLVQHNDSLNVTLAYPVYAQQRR

Mutant B-raf HTRF Assay POC Mean n = 2 [1] | Ki (PI3Kα [2]) | IC50 [3] | Ki (PI3Kα [4]) | Compound
99% of Control (POC) | 9 nM | 129 nM |  | COc1ccc(Nc2cnc(Nc3ccc(OC)nc3)c(-c3nc(C)nc4[nH]cnc34)c2)cc1 [Example 90, N5-(4-methoxyphenyl)-N2-(6-methoxypyridin-3-yl)-3-(2-methyl-9H-purin-6-yl)pyridine-2,5-diamine]
38% of Control (POC) | > 1500 nM |  |  | Nc1ccc(Nc2ncccc2-c2ncnc3[nH]cnc23)cn1 [Example 17, N3-(3-(9H-Purin-6-yl)Pyridin-2-yl)Pyridine-3,6-Diamine]
103% of Control (POC) | 1410 nM |  |  | Cc1nc(-c2cccnc2Nc2cccc3[nH]ncc23)c2cn[nH]c2n1 [Example 55, N-(3-(6-methyl-1H-pyrazolo[3,4-d]pyrimidin-4-yl)pyridin-2-yl)-1H-indazol-4-amine]
107% of Control (POC) | 50 nM | > 10000 nM |  | Cc1nc(-c2cc(Br)cnc2Nc2cccc3[nH]ncc23)c2nc[nH]c2n1 [Example 64, N-(5-bromo-3-(2-methyl-9H-purin-6-yl)pyridin-2-yl)-1H-indazol-4-amine]
87% of Control (POC) | 1330 nM | 3070 nM |  | Cc1nc(N)nc(-c2cccnc2Nc2ccc(N)nc2)n1 [Example 50, N5-(3-(4-Amino-6-Methyl-1,3,5-Triazin-2-yl)Pyridin-2-yl)Pyridine-2,5-Diamine]
75% of Control (POC) | 402 nM | 1190 nM |  | COc1ccc(COCc2cnc(Nc3cccc4[nH]ccc34)c(-c3nc(C)nc4[nH]cnc34)c2)cc1 [Example 71, N-(5-((4-methoxybenzyloxy)methyl)-3-(2-methyl-9H-purin-6-yl)pyridin-2-yl)-1H-indol-4-amine]
96% of Control (POC) |  |  |  | COc1ccc(Nc2ncc(CN3CCNCC3)cc2-c2nc(C)nc(N)n2)cn1 [Example 41, 4-(2-(6-methoxypyridin-3-ylamino)-5-(piperazin-1-ylmethyl)pyridin-3-yl)-6-methyl-1,3,5-triazin-2-amine]
58% of Control (POC) |  |  |  | Cc1nc(-c2cccnc2Nc2cccc3[nH]ccc23)c2nc[nH]c2n1 [Example 56, N-(3-(2-methyl-9H-purin-6-yl)pyridin-2-yl)-1H-indol-4-amine]
94% of Control (POC) |  |  |  | Cc1nc(N)nc(-c2cccnc2Nc2cccc3[nH]ncc23)n1 [Example 24, N-(3-(4-Amino-6-Methyl-1,3,5-Triazin-2-yl)Pyridin-2-yl)-1H-Indazol-4-Amine]
98% of Control (POC) |  |  |  | COc1ccc(Nc2ncc(CN3CCN(S(C)(=O)=O)CC3)cc2-c2nc(C)nc(N)n2)cn1 [Example 35, 4-(2-(6-methoxypyridin-3-ylamino)-5-((4-(methylsulfonyl)piperazin-1-yl)methyl)pyridin-3-yl)-6-methyl-1,3,5-triazin-2-amine]
95% of Control (POC) |  |  |  | COc1ccc(Nc2ncccc2-c2nc(C)nc(N)n2)cn1 [Example 25, 4-(2-(6-Methoxypyridin-3-Ylamino)Pyridin-3-yl)-6-Methyl-1,3,5-Triazin-2-Amine]
108% of Control (POC) |  | 554 nM |  | C=Cc1cnc(Nc2ccc(OC)nc2)c(-c2nc(C)nc3[nH]cnc23)c1 [Example 73, N-(6-methoxypyridin-3-yl)-3-(2-methyl-9H-purin-6-yl)-5-vinylpyridin-2-amine]
42% of Control (POC) | > 1500 nM |  |  | CC(=O)Nc1ccc(Nc2ncccc2-c2ncnc3[nH]cnc23)cn1 [Example 16, N-(5-(3-(9H-Purin-6-yl)Pyridin-2-Ylamino)Pyridin-2-yl)Acetamide]
84% of Control (POC) | 24 nM |  |  | Cc1nc(N)cc(-c2cccnc2Nc2cccc(O)c2)n1 [Example 26, 3-(3-(6-Amino-2-Methylpyrimidin-4-yl)Pyridin-2-Ylamino)Phenol]
94% of Control (POC) | 23 nM | 179 nM |  | COc1ccc(Nc2ncc(CCO)cc2-c2nc(C)nc3[nH]cnc23)cn1 [Example 75, 2-(6-(6-methoxypyridin-3-ylamino)-5-(2-methyl-9H-purin-6-yl)pyridin-3-yl)ethanol]
96% of Control (POC) | 107 nM | 441 nM |  | COc1ccc(Nc2ncc(N3CCOCC3)cc2-c2nc(C)nc3[nH]cnc23)cn1 [Example 97]

Mutant B-raf HTRF Assay POC Mean n = 2 [1] | Ki (PI3Kα [2]) | IC50 [3] | Ki (PI3Kα [4]) | Compound
90% of Control (POC) | 19 nM | 133 nM |  | COc1ccc(Nc2ncc(CN3CCN(S(C)(=O)=O)CC3)cc2-c2nc(C)nc3[nH]cnc23)cn1 [Example 85, N-(6-methoxypyridin-3-yl)-3-(2-methyl-9H-purin-6-yl)-5-((4-(methylsulfonyl)piperazin-1-yl)methyl)pyridin-2-amine]
66% of Control (POC) | 720 nM | 3630 nM |  | Cc1nc(-c2cc(Cl)cnc2Nc2cccc3[nH]ncc23)c2nc[nH]c2n1 [Example 61, N-(5-Chloro-3-(2-methyl-9H-purin-6-yl)pyridin-2-yl)-1H-indazol-4-amine]
77% of Control (POC) | 33 nM | 8530 nM |  | Cc1nc(-c2cc(CO)cnc2Nc2cccc3[nH]ncc23)c2nc[nH]c2n1 [Example 72, (6-(1H-indazol-4-ylamino)-5-(2-methyl-9H-purin-6-yl)pyridin-3-yl)methanol]
 |  |  | 7 nM | COc1ncc(Nc2ncc(C(C)CO)cc2-c2nc(C)nc(N)n2)cc1F (single isomer, unassigned) [312 Second eluting, 2-(5-(4-Amino-6-methyl-1,3,5-triazin-2-yl)-6-(5-fluoro-6-methoxypyridin-3-ylamino)pyridin-3-yl)propan-1-ol]
62% of Control (POC) | 359 nM | 1540 nM |  | Cc1nc(N)cc(-c2cnccc2Nc2cccc3[nH]ncc23)n1 [Example 107, N-(3-(6-amino-2-methylpyrimidin-4-yl)pyridin-4-yl)-1H-indazol-4-amine]
103% of Control (POC) | 62 nM | 173 nM |  | COc1ncc(Nc2ncccc2-c2nc(C)nc3[nH]cnc23)cn1 [Example 66, 2-Methoxy-N-(3-(2-Methyl-9H-Purin-6-yl)Pyridin-2-yl)Pyrimidin-5-Amine]
94% of Control (POC) |  |  |  | COc1ccc(Nc2ncc(CN3CCOCC3)cc2-c2nc(C)nc(N)n2)cn1 [Example 44, 4-(2-(6-methoxypyridin-3-ylamino)-5-(morpholinomethyl)pyridin-3-yl)-6-methyl-1,3,5-triazin-2-amine]
97% of Control (POC) | 97 nM | 1910 nM |  | COc1ccc(Nc2ncc(CN3CCNCC3)cc2-c2nc(C)nc3[nH]cnc23)cn1 [Example 84, N-(6-methoxypyridin-3-yl)-3-(2-methyl-9H-purin-6-yl)-5-(piperazin-1-ylmethyl)pyridin-2-amine]
108% of Control (POC) | 44 nM | 195 nM |  | COc1ccc(Nc2ncc(CO)cc2-c2nc(C)nc3[nH]cnc23)cn1 [Example 76, (6-(6-Methoxypyridin-3-Ylamino)-5-(2-Methyl-9H-Purin-6-yl)Pyridin-3-yl)Methanol]
107% of Control (POC) | 191 nM | 587 nM |  | Cc1cnc(Nc2cccnc2)c(-c2nc(C)nc(N)n2)c1 [Example 32, Methyl-6-(5-Methyl-2-(Pyridin-3-Ylamino)Pyridin-3-yl)-1,3,5-Triazin-2-Amine]
94% of Control (POC) |  |  |  | COc1cnc(Nc2ccc(OC)nc2)c(-c2nc(C)nc(N)n2)c1 [Example 33, 4-(5-Methoxy-2-(6-Methoxypyridin-3-Ylamino)Pyridin-3-yl)-6-Methyl-1,3,5-Triazin-2-Amine]
97% of Control (POC) |  |  |  | COc1ccc(Nc2ncc(C)cc2-c2nc(C)nc(N)n2)cn1 [Example 31, 4-(2-(6-Methoxypyridin-3-Ylamino)-5-Methylpyridin-3-yl)-6-Methyl-1,3,5-Triazin-2-Amine]
35% of Control (POC) |  | 821 nM |  | Cc1nc(N)cc(-c2cnccc2Nc2cccc3[nH]ccc23)n1 [Example 109, N-(3-(6-amino-2-methylpyrimidin-4-yl)pyridin-4-yl)-1H-indol-4-amine]
 | 32 nM | 18 nM |  | COc1ncc(Nc2ncc([C@H](C)N3CCOCC3)cc2-c2cc(N)nc(C)n2)cc1F [Example 275, 6-(2-((5-Fluoro-6-Methoxy-3-Pyridinyl)Amino)-5-((1S)-1-(4-Morpholinyl)Ethyl)-3-Pyridinyl)-2-Methyl-4-Pyrimidinamine]
 | 4 nM | 22 nM |  | Cc1nc(N)nc(-c2cc(CN3CCN(S(C)(=O)=O)CC3)cnc2Nc2cccc3[nH]ncc23)n1 [Example 36, N-(3-(4-amino-6-methyl-1,3,5-triazin-2-yl)-5-((4-(methylsulfonyl)piperazin-1-yl)methyl)pyridin-2-yl)-1H-indazol-4-amine]

Compound | Mutant B-raf HTRF Assay POC Mean n = 2 [1] | Ki (PI3Kα [2]) | IC50 [3] | Ki (PI3Kα [4])
Cc1nc(-c2cc(C(F)(F)F)cnc2Nc2cccc3[nH]ncc23)c2nc[nH]c2n1 [Example 65, N-(3-(2-Methyl-9H-Purin-6-yl)-5-(Trifluoromethyl)Pyridine-2-yl)-1H-Indazol-4-Amine] | 85% of Control (POC) | 119 nM |  | 
